Test results as given in ChEMBL document CHEMBL1158624, “Prenylcoumarin with Rev-export inhibitory activity from Cnidii Monnieris Fructus” (Bioorg Med Chem Lett, 2010).
Activity calls are given as the source filed them. No cut-off for these calls is given here.

Columns and labels:
Type in all cases: cell-based
Exportin-1 [1] = target: T1, Exportin-1 (Homo sapiens, UniProt O14980); experiment: Inhibition of CRM1-mediated hemagglutininin-tagged HIV1 Rev protein nuclear export in human HeLa cells assessed as nucleus localization after 12 hrs by indirect fluorescent antibody technique
Exportin-1 [2] = target: T1, Exportin-1; experiment: Inhibition of CRM1-mediated hemagglutininin-tagged HIV1 Rev protein nuclear export in human HeLa cells assessed as nucleus localization at 25 uM after 12 hrs by indirect fluorescent antibody technique
Exportin-1 [3] = target: T1, Exportin-1; experiment: Inhibition of CRM1-mediated hemagglutininin-tagged HIV1 Rev protein nuclear export in human HeLa cells assessed as nuclear localization at 5 uM after 12 hrs by indirect fluorescent antibody technique

T1 sequence (O14980 whole entry): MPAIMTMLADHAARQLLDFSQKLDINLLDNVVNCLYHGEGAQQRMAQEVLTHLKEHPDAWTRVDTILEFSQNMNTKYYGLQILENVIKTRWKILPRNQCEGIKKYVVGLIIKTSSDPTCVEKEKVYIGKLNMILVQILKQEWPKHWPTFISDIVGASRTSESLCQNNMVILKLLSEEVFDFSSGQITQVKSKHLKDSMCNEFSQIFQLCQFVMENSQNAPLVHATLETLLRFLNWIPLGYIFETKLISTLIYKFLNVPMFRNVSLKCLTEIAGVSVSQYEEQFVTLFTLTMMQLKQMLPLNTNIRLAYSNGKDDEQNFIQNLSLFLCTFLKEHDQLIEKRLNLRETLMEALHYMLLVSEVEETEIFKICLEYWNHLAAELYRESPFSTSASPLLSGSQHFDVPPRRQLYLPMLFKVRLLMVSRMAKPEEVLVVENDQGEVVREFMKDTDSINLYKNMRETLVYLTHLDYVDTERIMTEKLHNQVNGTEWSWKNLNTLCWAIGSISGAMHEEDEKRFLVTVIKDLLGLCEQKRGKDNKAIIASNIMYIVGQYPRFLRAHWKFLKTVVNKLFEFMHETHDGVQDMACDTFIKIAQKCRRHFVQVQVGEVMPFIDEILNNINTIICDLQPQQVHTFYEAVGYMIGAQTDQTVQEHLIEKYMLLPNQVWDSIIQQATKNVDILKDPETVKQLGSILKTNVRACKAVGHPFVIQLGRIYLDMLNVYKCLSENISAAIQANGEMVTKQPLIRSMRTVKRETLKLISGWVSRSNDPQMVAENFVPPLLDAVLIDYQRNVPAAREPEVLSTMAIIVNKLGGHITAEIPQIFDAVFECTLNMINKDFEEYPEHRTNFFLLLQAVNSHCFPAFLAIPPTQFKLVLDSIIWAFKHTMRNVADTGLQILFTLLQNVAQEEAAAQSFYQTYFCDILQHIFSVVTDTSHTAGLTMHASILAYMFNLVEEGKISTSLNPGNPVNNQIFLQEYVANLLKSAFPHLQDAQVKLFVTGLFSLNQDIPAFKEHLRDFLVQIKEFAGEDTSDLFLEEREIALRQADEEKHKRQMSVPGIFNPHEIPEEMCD

SMILES	IC50 (Exportin-1 [1]) [µM]	inhibition (Exportin-1 [2]) [%]	inhibition (Exportin-1 [3])
CC(C)=CCc1cccc2ccc(=O)oc12	6.4	–	–
COc1ccc2c(c1CC=C(C)C)OC(=O)CC2	–	2.6	–
O=c1ccc2ccccc2o1 [COUMARIN]	> 25	–	–
COc1ccc2ccc(=O)oc2c1 [HERNIARIN]	> 25	–	–
COc1ccc2ccc(=O)oc2c1CC=C(C)C [OSTHOLE]	1.6	–	Active
